Tests used:
Details in all cases: concentration not given here
[1] = biological target: T1, Interleukin-1 receptor-associated kinase 4 (Homo sapiens) (UniProt Q9NWZ3); experiment: Inhibition of human IRAK4
T1 sequence (whole entry): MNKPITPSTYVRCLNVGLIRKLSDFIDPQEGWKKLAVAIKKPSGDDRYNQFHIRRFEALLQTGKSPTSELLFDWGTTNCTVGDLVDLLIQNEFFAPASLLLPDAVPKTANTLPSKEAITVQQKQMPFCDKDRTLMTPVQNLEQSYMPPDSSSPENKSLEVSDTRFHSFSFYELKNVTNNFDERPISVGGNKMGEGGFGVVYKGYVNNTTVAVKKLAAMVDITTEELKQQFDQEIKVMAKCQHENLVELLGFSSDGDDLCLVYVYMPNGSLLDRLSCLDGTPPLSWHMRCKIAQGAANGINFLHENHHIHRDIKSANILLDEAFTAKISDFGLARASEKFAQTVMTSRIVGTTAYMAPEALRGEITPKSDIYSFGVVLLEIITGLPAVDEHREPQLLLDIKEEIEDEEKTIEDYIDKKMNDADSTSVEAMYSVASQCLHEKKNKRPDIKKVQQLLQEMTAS

[2] = biological target: Mitogen-activated protein kinase kinase kinase kinase 4 (Homo sapiens) (UniProt O95819); experiment: Inhibition of human HGK
Mitogen-activated protein kinase kinase kinase kinase 4 (Homo sapiens), sequence (O95819 2-1239 limits assumed): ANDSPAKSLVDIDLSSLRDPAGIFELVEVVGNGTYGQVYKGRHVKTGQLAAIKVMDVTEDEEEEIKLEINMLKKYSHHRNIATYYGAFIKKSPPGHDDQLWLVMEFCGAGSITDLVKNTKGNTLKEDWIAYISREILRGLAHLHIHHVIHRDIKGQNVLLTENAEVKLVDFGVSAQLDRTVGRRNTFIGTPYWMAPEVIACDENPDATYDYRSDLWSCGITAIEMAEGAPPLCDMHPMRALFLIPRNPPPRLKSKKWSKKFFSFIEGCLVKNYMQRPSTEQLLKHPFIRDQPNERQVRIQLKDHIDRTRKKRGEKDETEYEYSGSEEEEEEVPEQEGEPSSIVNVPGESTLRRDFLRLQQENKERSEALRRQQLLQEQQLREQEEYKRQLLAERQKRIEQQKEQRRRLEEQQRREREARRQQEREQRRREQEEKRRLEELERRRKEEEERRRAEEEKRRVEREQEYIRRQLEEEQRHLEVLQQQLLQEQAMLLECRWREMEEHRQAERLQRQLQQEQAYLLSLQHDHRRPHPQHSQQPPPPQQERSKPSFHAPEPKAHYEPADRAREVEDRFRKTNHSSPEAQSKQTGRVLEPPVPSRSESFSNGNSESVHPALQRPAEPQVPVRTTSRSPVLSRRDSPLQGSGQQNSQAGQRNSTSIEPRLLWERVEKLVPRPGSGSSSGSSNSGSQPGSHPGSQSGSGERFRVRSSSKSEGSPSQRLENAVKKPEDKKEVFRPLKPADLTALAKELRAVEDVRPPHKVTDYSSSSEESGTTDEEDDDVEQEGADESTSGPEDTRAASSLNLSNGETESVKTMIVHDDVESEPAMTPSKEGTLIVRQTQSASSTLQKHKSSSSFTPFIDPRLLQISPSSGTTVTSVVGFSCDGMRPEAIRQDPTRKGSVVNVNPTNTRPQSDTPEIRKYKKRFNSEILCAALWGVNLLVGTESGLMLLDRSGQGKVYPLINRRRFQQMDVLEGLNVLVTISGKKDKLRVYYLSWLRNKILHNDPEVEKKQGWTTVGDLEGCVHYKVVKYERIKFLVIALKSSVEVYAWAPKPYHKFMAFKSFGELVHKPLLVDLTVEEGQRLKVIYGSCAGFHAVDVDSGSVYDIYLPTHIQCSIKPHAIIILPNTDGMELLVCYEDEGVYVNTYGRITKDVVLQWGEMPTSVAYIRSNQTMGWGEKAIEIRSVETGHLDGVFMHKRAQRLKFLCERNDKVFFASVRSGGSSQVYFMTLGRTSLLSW

[3] = biological target: Mitogen-activated protein kinase 8 (Homo sapiens) (UniProt P45983); experiment: Inhibition of human JNK1
Mitogen-activated protein kinase 8 (Homo sapiens), sequence (P45983 whole entry): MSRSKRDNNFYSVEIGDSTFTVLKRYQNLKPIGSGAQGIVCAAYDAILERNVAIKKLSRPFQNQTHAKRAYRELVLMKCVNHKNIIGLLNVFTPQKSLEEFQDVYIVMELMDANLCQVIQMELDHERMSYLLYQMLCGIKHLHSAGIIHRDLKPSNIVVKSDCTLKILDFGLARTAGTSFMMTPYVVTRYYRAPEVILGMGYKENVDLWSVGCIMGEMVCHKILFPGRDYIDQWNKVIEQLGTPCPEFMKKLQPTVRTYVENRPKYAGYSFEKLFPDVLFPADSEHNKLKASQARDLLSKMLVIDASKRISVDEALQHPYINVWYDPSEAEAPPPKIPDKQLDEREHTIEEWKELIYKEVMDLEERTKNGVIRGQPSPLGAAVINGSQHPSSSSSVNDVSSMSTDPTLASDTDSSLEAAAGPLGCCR

Measured: inhibition

CCC(=O)Nc1nc(C)c(-c2csc(Nc3cc(OC)ccc3OC)n2)s1
> 50%: all assays above

— ChEMBL document CHEMBL4477233, “Discovery of novel TAOK2 inhibitor scaffolds from high-throughput screening” (Bioorg Med Chem Lett, 2016)
